System: N48K Clarin-1
Assay: Restoration of expression of N48K Clarin-1 (24 hour incubation), Example 20
Type: cell-based
Details: HEK293-Clarin-1 N48K-HA D9 cell line; 24 hr incubation with compound; HA-Clarin-1 staining per cell
Experimental: Assay Method Showing Activity of Compounds of the Invention that Restore Expression of N48K Clarin-1 (24 Hour Incubation)
Clarin-1 is the protein encoded by the gene mutated in Usher III Syndrome (Adato et al., 2002). The most prevalent mutation in Clarin-1 in North America is N48K, which is reported to cause loss of glycosylation and a trafficking defect (Tian et al., 2009). […] Thus it is believed that restoring the trafficking of N48K Clarin-1 to the cell surface provides an avenue of intervention for Usher III Syndrome. […]
The HA-tagged N48K Clarin-1 was detected with an antibody against the HA tag (HA.11 Clone 16B12 Monoclonal antibody, Covance #MMS-101P) at a dilution of 1:1000 in PBS containing Triton X-100. […] The imaging of the stained cells was performed on an InCell 1000 High Content Imager (GE Healthcare), reading out the Cy3 channel for N48K Clarin-1 and the DAPI channel for nuclei. The images were analyzed and quantitated using a specific algorithm. This algorithm measured the HA-Clarin-1 staining for each cell based on the additional nuclear segmentation of the DAPI signal (FIG. 1). This algorithm measured the intensity per cell, and thus it is less sensitive for variation in cell number. Per well, approximately 2,000 cells were measured to achieve an average density per cell measurement.

- IC50: < 2000 nM
Compound: O=C(Cn1nc(-c2ccccc2)c2c(Cl)c(-c3cccc(F)c3)nnc21)N1CCCC1 [Compound 11, 2-[4-chloro-5-(3-fluorophenyl)-3-phenyl-pyrazolo[3,4-c]pyridazin-1-yl]-1-pyrrolidin-1-yl-ethanone]

From US8765762B2, “Pyrazolopyridazines and methods for treating retinal-degerative diseases and hearing loss associated with usher syndrome” (Usher III Initiative, priority 2012, dated 2014)
